According to patent publication US11680086B2, “Lipopeptide for potently inhibiting HIV, derivative thereof, pharmaceutical composition thereof and use thereof” (Institute of Pathogen Biology, Chinese Academy of Medical …, priority 2017, dated 2023):
Peptide text beside a SMILES is read from it. * marks the point of attachment. X1 = Cc1c(C)c2c(c(C)c1OC(=O)CCC(=O)*)CCC(C)(CCCC(C)CCCC(C)CCCC(C)C)O2; Stearoyl = CCCCCCCCCCCCCCCCCC(=O)*; Palmitoyl = CCCCCCCCCCCCCCCC(=O)*

Experiments:
[1] = system: NL4-3 pseudovirus carrying T-20 resistance mutation site of NHR; assay: inhibition of T-20 resistant strains; assay type: cell-based, HIV-1; details: strains with single or double mutations
[2] = system: HIV-2 strain ROD (infectious); assay: inhibition of HIV-2; assay type: cell-based; details: HIV-2 ROD
Method: (§1) Inhibition rate (%) and IC50 value were calculated.
(§2) In order to further reflect the antiviral advantages of the potent lipopeptides of the present invention, their inhibitory activity against HIV-2 and SIV was determined in the example. The methods of antiviral activity assays used were described in the literatures published by the present inventors (see the References 13 and 30 listed in the Background Art). The molecular cloning plasmid pROD of the HIV-2 strain ROD (HIV-2ROD) was kindly provided by Professor Nuno Taveira from the University of Lisbon, Portugal, and the plasmids expressing the SIV strain SIVpbj (SIVPBJ) and SIV239 envelope proteins (pSIVpbj-Env and pSIV239, respectively) were kindly provided by Professor Xu Jianqing from the Fudan University. The preparation of the infectious ROD was the same as that of the infectious JRCSF in the above section 2.1, and the pseudoviruses SIVpbj and SIV239 were prepared by a method same as that described in the above Examples 2 and 3.

[3] = system: HIV-1; details: cell fusion, entry and replication; compared with parent or control peptide
Text: HIV-1 pseudovirus-mediated cell entry inhibition assay: basic steps included: (1) Preparation of HIV-1 pseudovirus: the 293T cells were co-transfected with a plasmid expressing the envelope protein (Env) of HIV-1 strain NL4-3 (i.e., a recombinant expression plasmid obtained by inserting the gene encoding the envelope protein (ENV) of the D36G mutant of the HIV-1 strain NL4-3 in the Table 2 of the Reference 14 listed in the Background Art into the vector pcDNA3.1(−)) and the HIV-1 backbone plasmid pSG3Δenv (provided by the AIDS Reagent Program of National Institutes of Health (NIH), catalog number: 11051) by using a cell transfection reagent, incubated in a cell incubator of 37° C. and 5% CO2 for 6 hours, and then the medium was changed, and the cells were further incubated for 48 hours. The cell culture supernatant containing pseudovirus particles was pipetted and filtered with a 0.45 μm filter to collect the supernatant, then 20% fetal bovine serum (FBS) was added thereto, the final solution was transferred to a polypropylene tube, and stored at −80° C. for ready for use or directly subjected to virus titration. (2) Titration of HIV-1 pseudovirus: the viruses were diluted by 5 folds in a 96-well plate, and 4 replicate wells with 8 gradients were set to a final volume of 100 microliters. The TZM-b1 cells were trypsinized and counted, and the cells were diluted to 1×10^5 cells/ml with DMEM complete medium; 100 μl of cells dilution (containing 15 μg/ml DEAE-dextran) per well were added and cultured at 37° C. and 5% CO2 for 48 hours. The 96-well plate was then taken from the cell culture incubator. The supernatant was discarded from the wells. To each well, 30 μl of a cell lysate was added, and after 10 minutes, 100 μl of a luciferase detection reagent was added. 100 μl of liquid was pipetted from each well and added to a corresponding 96-well white plate, and the luminescence values were read by a microplate photometer. The virus titer was calculated by the Reed-Muench method. […]

[4] = system: SIV pseudoviruses SIVpbj and SIV239; assay: inhibition of SIV pseudoviruses; assay type: cell-based
Method: (§3) The supernatant was discarded from the wells. […] Inhibition rate (%) and IC50 value were calculated.
as §2

[5] = circular dichroism secondary structure analysis of the inhibitors themselves; assay type: physicochemical; details: 10 μM, 20 μM and 40 μM in PBS
Method: The circular dichroism spectrophotometer was Jasco-815 by JASCO Inc., and the assay method was referred to the papers published by the inventors (see the References 18 and 30 listed in the Background Art). […] The N39 and an inhibitor were separately dissolved in a phosphate buffered saline (PBS) to prepare a PBS solution (pH 7.2) of a concentration of 20 μM. The N39 was mixed with an inhibitor at a volume ratio of 1:1 (final concentration of 10 μM for each), the mixed sample was placed at 37° C. for 30 minutes to fully react, and then the helix content and Tm value of the resultant complex were measured by the circular dichroism spectrophotometer. The scan wavelength range of the device was 195-260 nm with a wavelength interval of 1 nm, and the values measured by scanning for three times were averaged. Based on the CD signals, the interaction between the polypeptides and the helix content were determined. Then, the sample for CD signal measurement was transferred to the temperature scanning sample cell, the program of the CD device was set to temperature scanning with a detection wavelength of 220 nm and scanning range of 20-98° C., and the program scan was performed to obtain the curve of the CD signals vs temperature, based on which the Tm value was calculated. Based on the Tm value, the stability of the formed helical structure of the inhibitor and N39 was judged.
For easy analysis, the α-helix content and the Tm value of the inhibitors were measured at concentrations of 10 μM, 20 μM, and 40 μM (PBS solution), respectively.

[6] = system: HIV-1 strain NL4-3 pseudovirus (D36G mutant); assay type: cell-based
Method: as §3

[7] = system: HIV-1 strain JRCSF; assay type: cell-based
Method: as §1

Compound: CCCCCCCCCCCCCCCC(=O)NCCCC[C@H](NC(=O)[C@H](CCC(=O)O)NC(=O)[C@H](CC(C)C)NC(=O)[C@H](CCCCN)NC(=O)[C@H](CCCCN)NC(=O)[C@H](CC(C)C)NC(=O)[C@H](CCC(=O)O)NC(=O)[C@H](CCC(=O)O)NC(=O)[C@H](CCC(=O)O)NC(=O)[C@H](CC(N)=O)NC(=O)[C@H](CCCCN)NC(=O)[C@H](CCCCN)NC(=O)[C@H](CCC(N)=O)NC(=O)[C@H](CCC(N)=O)NC(=O)[C@H](CCC(=O)O)NC(=O)[C@H](CCC(=O)O)NC(=O)[C@H](C)NC(=O)[C@H](CCCCN)NC(=O)[C@H](CCCCN)NC(=O)[C@H](CC(C)C)NC(=O)[C@H](CC(C)C)NC(=O)[C@H](CCC(=O)O)NC(=O)[C@H](CCC(=O)O)NC(=O)[C@@H](NC(=O)[C@H](CC(N)=O)NC(=O)[C@H](C)NC(=O)[C@H](CCC(=O)O)NC(=O)[C@H](CC(C)C)NC(C)=O)[C@@H](C)CC)C(N)=O [LP-51] (Ac-LEANIEELLKKAEEQQKKNEEELKKLEK(Palmitoyl)-NH2)
- inhibitory activity against T-20 resistant strains (in words) [1]: thousands to tens of thousands of times better than that of the LP-40
- inhibitory activity against HIV-2 (in words) [2]: extremely potent inhibitory activity
- antiviral activity (in words) [3]: comparable to that of the LP-50
- inhibitory activity against SIV (in words) [4]: extremely potent inhibitory activity
- secondary structure of the inhibitor itself (in words) [5]: distinct helical structure

Compound: CCCCCCCCCCCCCCCC(=O)NCCCC[C@H](NC(=O)[C@H](CCC(=O)O)NC(=O)[C@H](CC(C)C)NC(=O)[C@H](CCCCN)NC(=O)[C@H](CCCCN)NC(=O)[C@H](CC(C)C)NC(=O)[C@H](CCC(=O)O)NC(=O)[C@H](CCC(=O)O)NC(=O)[C@H](CCC(=O)O)NC(=O)[C@H](CC(N)=O)NC(=O)[C@H](CCCCN)NC(=O)[C@H](CCCCN)NC(=O)[C@H](CCC(N)=O)NC(=O)[C@H](CCC(N)=O)NC(=O)[C@H](CCC(=O)O)NC(=O)[C@H](CCC(=O)O)NC(=O)[C@H](C)NC(=O)[C@H](CCCCN)NC(=O)[C@H](CCCCN)NC(=O)[C@H](CC(C)C)NC(=O)[C@H](CC(C)C)NC(=O)[C@H](CCC(=O)O)NC(=O)[C@H](CCC(=O)O)NC(=O)[C@@H](NC(=O)[C@H](CCCCN)NC(=O)[C@H](CCC(N)=O)NC(=O)[C@H](CCC(=O)O)NC(=O)[C@H](Cc1c[nH]c2ccccc12)NC(C)=O)[C@@H](C)CC)C(N)=O [LP-52] (Ac-WEQKIEELLKKAEEQQKKNEEELKKLEK(Palmitoyl)-NH2)
- inhibitory activity against T-20 resistant strains (in words) [1]: thousands to tens of thousands of times better than that of the LP-40
- inhibitory activity as folds of that of T-20 ([6]; NL4-3 pseudovirus entry, relative to T-20): 2353 folds
- inhibitory activity further improved, folds ([6]; NL4-3 pseudovirus, relative to LP-50): about 2 folds
- inhibitory activity against HIV-2 (in words) [2]: extremely potent inhibitory activity
- inhibitory activity against SIV (in words) [4]: extremely potent inhibitory activity
- secondary structure of the inhibitor itself (in words) [5]: distinct helical structure
- inhibitory activity as folds of that of T-20 ([7]; JRCSF replication, relative to T-20): 1038 folds
- inhibitory activity further improved, folds ([7]; replicative JRCSF virus, relative to LP-50): ~5 folds

Compound: CC[C@H](C)[C@H](NC(=O)[C@H](CCCCN)NC(=O)[C@H](CCC(N)=O)NC(=O)[C@H](CCC(=O)O)NC(=O)[C@H](Cc1c[nH]c2ccccc12)NC(C)=O)C(=O)N[C@@H](CCC(=O)O)C(=O)N[C@@H](CCC(=O)O)C(=O)N[C@@H](CC(C)C)C(=O)N[C@@H](CC(C)C)C(=O)N[C@@H](CCCCN)C(=O)N[C@@H](CCCCN)C(=O)N[C@@H](C)C(=O)N[C@@H](CCC(=O)O)C(=O)N[C@@H](CCC(=O)O)C(=O)N[C@@H](CCC(N)=O)C(=O)N[C@@H](CCC(N)=O)C(=O)N[C@@H](CCCCN)C(=O)N[C@@H](CCCCN)C(=O)N[C@@H](CC(N)=O)C(=O)N[C@@H](CCC(=O)O)C(=O)N[C@@H](CCC(=O)O)C(=O)N[C@@H](CCC(=O)O)C(=O)N[C@@H](CC(C)C)C(=O)N[C@@H](CCCCN)C(=O)N[C@@H](CCCCN)C(=O)N[C@@H](CC(C)C)C(=O)N[C@@H](CCC(=O)O)C(=O)N[C@@H](CCCCNC(=O)CCC(=O)Oc1c(C)c(C)c2c(c1C)CCC(C)(CCCC(C)CCCC(C)CCCC(C)C)O2)C(N)=O (stereo partly drawn) [LP-85] (Ac-WEQKIEELLKKAEEQQKKNEEELKKLEK(X1)-NH2)
- inhibitory activity against T-20 resistant strains (in words) [1]: thousands to tens of thousands of times better than that of the LP-40
- inhibitory activity against HIV-2 (in words) [2]: extremely potent inhibitory activity
- antiviral activity (in words) [3]: strong antiviral effects
- inhibitory activity against SIV (in words) [4]: extremely potent inhibitory activity

Compound: CCCCCCCCCCCCCCCCCC(=O)NCCCC[C@H](NC(=O)[C@H](CCC(=O)O)NC(=O)[C@H](CC(C)C)NC(=O)[C@H](CCCCN)NC(=O)[C@H](CCCCN)NC(=O)[C@H](CC(C)C)NC(=O)[C@H](CCC(=O)O)NC(=O)[C@H](CCC(=O)O)NC(=O)[C@H](CCC(=O)O)NC(=O)[C@H](CC(N)=O)NC(=O)[C@H](CCCCN)NC(=O)[C@H](CCCCN)NC(=O)[C@H](CCC(N)=O)NC(=O)[C@H](CCC(N)=O)NC(=O)[C@H](CCC(=O)O)NC(=O)[C@H](CCC(=O)O)NC(=O)[C@H](C)NC(=O)[C@H](CCCCN)NC(=O)[C@H](CCCCN)NC(=O)[C@H](CC(C)C)NC(=O)[C@H](CC(C)C)NC(=O)[C@H](CCC(=O)O)NC(=O)[C@H](CCC(=O)O)NC(=O)[C@@H](NC(C)=O)[C@@H](C)CC)C(N)=O [LP-90] (Ac-IEELLKKAEEQQKKNEEELKKLEK(Stearoyl)-NH2)
- inhibitory activity against T-20 resistant strains (in words) [1]: much lower active against T-20 resistant mutant strains than the LP-52 and LP-80
- inhibitory activity against HIV-2 (in words) [2]: extremely potent inhibitory activity
- antiviral activity (in words) [3]: potent antiviral activity
- inhibitory activity against SIV (in words) [4]: extremely potent inhibitory activity
